Reference: US8980848B2, “Flavonoid dimers and their use” (The Hong Kong Polytechnic University, priority 2010, dated 2015)

Key:
[1] = Tumor cell line cytotoxicity of flavonoid dimers, LCC6; type: cell-based, human; conditions: human, IC50 of compound alone
Method: (§1) (b) Tumor Cell Line Cytotoxicity. The tumor cytotoxicity assays of flavonoid dimers were performed against LCC6, LCC6MDR and L929 cell lines. […] In brief, LCC6, LCC6MDR and L929 cells were seeded into 96-well flat bottom microtiter plate at 1×10^4 cells per well in a final volume of 100 μL media, respectively. A graded dose of flavonoid dimers was added into wells. The plate was incubated at 37° C. for 72 hrs at the atmosphere 5% CO2 in the air. The % of survivors was determined.

[2] = Tumor cell line cytotoxicity of flavonoid dimers, LCC6MDR; type: cell-based, human; conditions: human, IC50 of compound alone
Method: as §1

[3] = biological target: Pgp (LCC6MDR cells) (Homo sapiens, UniProt P08183); assay: Cell proliferation assay: Pgp-modulating activity, reversal of anticancer drug resistance in LCC6MDR cells; conditions: for RF (Relative Fold), cpd at 0.5 μM: RF = (IC50 without modulator)/(IC50 with 0.5 μM modulator); for RF (Relative Fold), cpd at 0.5 μM / RF (Relative Fold), cpd at 1 μM: paclitaxel; for RF (Relative Fold), cpd at 0.5 μM / RF (Relative Fold), cpd at 1 μM / EC50: LCC6MDR; for RF (Relative Fold), cpd at 1 μM: RF = (IC50 without modulator)/(IC50 with 1.0 μM modulator); for EC50: EC50 of compounds for reversing anticancer drug resistance (nM); for Therapeutic index: IC50 of compounds for L929/EC50 of compounds for lowering paclitaxel drug resistance
Method: Cell Proliferation Assay. 6,000 cells of LCC6 or LCC6MDR and anticancer drugs (paclitaxel, vinblastine, vincristine, doxorubicin and mitoxantrone) were mixed with or without modulators to a final volume of 200 μL in each well of 96-well plates. […] The plates were then incubated for 5 days at 37° C. […] IC50 values were calculated from the dose-response curves of MTS assays (Prism 4.0).

[4] = Cytotoxicity of flavonoid dimers, L929 mouse fibroblast; type: cell-based; conditions: mouse, IC50 of compound alone, 72 hrs, mouse fibroblast
Method: as §1

Sequence of Pgp (LCC6MDR cells) (P08183 whole entry): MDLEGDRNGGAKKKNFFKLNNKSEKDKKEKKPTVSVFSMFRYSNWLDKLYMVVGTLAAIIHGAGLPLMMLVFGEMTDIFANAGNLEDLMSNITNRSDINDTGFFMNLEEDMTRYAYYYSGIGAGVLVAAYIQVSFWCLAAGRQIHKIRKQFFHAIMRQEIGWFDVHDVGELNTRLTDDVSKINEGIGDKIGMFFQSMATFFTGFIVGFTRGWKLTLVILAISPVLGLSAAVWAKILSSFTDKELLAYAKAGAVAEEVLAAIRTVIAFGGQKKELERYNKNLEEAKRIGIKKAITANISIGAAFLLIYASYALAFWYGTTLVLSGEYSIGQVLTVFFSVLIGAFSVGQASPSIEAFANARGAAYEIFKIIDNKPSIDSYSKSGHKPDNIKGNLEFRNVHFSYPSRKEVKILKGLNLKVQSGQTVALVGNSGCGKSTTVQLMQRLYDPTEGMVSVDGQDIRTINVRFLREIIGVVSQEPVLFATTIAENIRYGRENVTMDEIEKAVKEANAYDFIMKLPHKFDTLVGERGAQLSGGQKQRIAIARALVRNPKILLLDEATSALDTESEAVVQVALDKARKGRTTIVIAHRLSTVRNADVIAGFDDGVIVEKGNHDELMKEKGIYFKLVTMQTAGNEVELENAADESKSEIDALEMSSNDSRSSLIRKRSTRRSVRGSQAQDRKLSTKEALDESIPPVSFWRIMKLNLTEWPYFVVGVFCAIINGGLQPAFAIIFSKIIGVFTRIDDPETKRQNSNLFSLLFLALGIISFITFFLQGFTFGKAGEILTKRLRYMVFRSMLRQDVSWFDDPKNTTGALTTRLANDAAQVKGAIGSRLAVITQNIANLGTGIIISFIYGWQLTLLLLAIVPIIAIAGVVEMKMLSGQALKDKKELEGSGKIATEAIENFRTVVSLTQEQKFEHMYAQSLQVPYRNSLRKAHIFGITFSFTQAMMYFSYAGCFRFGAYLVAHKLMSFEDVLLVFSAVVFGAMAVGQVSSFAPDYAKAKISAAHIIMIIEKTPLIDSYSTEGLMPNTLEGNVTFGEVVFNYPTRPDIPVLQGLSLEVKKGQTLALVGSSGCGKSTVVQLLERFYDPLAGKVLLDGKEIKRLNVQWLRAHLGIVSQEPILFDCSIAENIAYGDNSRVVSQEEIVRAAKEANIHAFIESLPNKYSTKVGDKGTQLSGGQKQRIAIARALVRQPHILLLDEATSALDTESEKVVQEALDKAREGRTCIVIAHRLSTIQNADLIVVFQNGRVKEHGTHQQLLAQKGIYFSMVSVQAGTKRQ

| EC50 ([3]; Paclitaxel) | SMILES | IC50 at 72 h ([1]; LCC6 cells) | IC50 at 72 h ([2]; LCC6MDR cells) | RF (Relative Fold), cpd at 0.5 μM [3] | IC50 at 72 h ([4]; L929 fibroblast cells) | RF (Relative Fold), cpd at 1 μM [3] | Therapeutic index [3] | also measured |
| --- | --- | --- | --- | --- | --- | --- | --- | --- |
| – | COc1cc(-c2cc(=O)c3ccccc3o2)ccc1OCCOCCNCCOCCOc1ccc(-c2cc(=O)c3ccccc3o2)cc1OC [Compound 12b, 1,13-Bis[4′-((4H-chromen-4-on-2-yl)-3′-methoxyphenyl)]-1,4,10,13-tetraoxa-7-azamidecane] | 12.8 ± 1.1 µM | 23.8 ± 12.8 µM | (0.8) | – | – | – | – |
| – | Cc1ccc2oc(-c3ccc(OCCOCCNCCOCCOc4ccc(-c5cc(=O)c6cc(C)ccc6o5)cc4)cc3)cc(=O)c2c1 [Compound 12c, 1,13-Bis[4′-((6-methyl)-4H-chromen-4-on-2-yl)phenyl]-1,4,10,13-tetraoxa-7-azamidecane] | 7.5 ± 0.9 µM | 7 ± 1.4 µM | (13.9) | 6 ± 0.6 µM | – | – | – |
| – | COc1cccc2oc(-c3ccc(OCCOCCNCCOCCOc4ccc(-c5cc(=O)c6c(OC)cccc6o5)cc4)cc3)cc(=O)c12 [Compound 12d, 1,13-Bis[4′-((5-methoxy)-4H-chromen-4-on-2-yl)phenyl]-1,4,10,13-tetraoxa-7-azamidecane] | 8.8 ± 2.7 µM | 10.2 ± 3.8 µM | (1.2) | – | – | – | – |
| – | O=c1c(OCc2ccccc2)c(-c2ccc(OCCOCCNCCOCCOc3ccc(-c4oc5ccccc5c(=O)c4OCc4ccccc4)cc3)cc2)oc2ccccc12 [Compound 12e, 1,13-Bis[4′-((3-benzyloxy)-4H-chromen-4-on-2-yl)phenyl]-1,4,10,13-tetraoxa-7-azamidecane] | 4.3 ± 0.5 µM | 4.4 ± 0.1 µM | (54.7) | 4.2 µM | – | – | – |
| – | O=c1cc(-c2ccc(OCCOCCNCCOCCOc3ccc(-c4cc(=O)c5cc(F)ccc5o4)cc3)cc2)oc2ccc(F)cc12 [Compound 12f, 1,13-Bis[4′-((6-fluoro)-4H-chromen-4-on-2-yl)phenyl]-1,4,10,13-tetraoxa-7-azamidecane] | 5.3 ± 1 µM | 3.3 ± 0.5 µM | (72.9) | 5.7 ± 0.4 µM | (109.4) | – | – |
| – | COc1cc(-c2cc(=O)c3ccccc3o2)ccc1OCCOCCN(CCOCCOc1ccc(-c2cc(=O)c3ccccc3o2)cc1OC)C(=O)OC(C)(C)C [Compound 16b, 1,13-Bis[4′-((4H-chromen-4-on-2-yl)-3′-methoxyphenyl)]-7-(tert-butylformyl)-1,4,10,13-tetraoxa-7-azamidecane] | 8.3 ± 1.4 µM | 6.9 ± 2.9 µM | (8.7) | 33.3 µM | – | – | – |
| – | C[C@H](N)C(=O)N(CCOCCOc1ccc(-c2cc(=O)c3ccccc3o2)cc1)CCOCCOc1ccc(-c2cc(=O)c3ccccc3o2)cc1 [Compound 23b, 1,13-Bis[4′-(4H-chromen-4-on-2-yl)phenyl]-7-[(S)-2-amino-1-oxopropyl]-1,4,10,13-tetraoxa-7-azamidecane] | 4.4 µM | 4.6 ± 0.2 µM | (1.0) | – | – | – | – |
| – | O=C(c1ccccc1)N(CCOCCOc1ccc(-c2cc(=O)c3ccccc3o2)cc1)CCOCCOc1ccc(-c2cc(=O)c3ccccc3o2)cc1 [Compound 23d, 1,13-Bis[4′-(4H-chromen-4-on-2-yl)phenyl]-7-(benzoyl)-1,4,10,13-tetraoxa-7-azamidecane] | > 100 µM | > 100 µM | (7.5) | 95 µM | – | – | – |
| – | CC(C)(C)CC(=O)N(CCOCCOc1ccc(-c2cc(=O)c3ccccc3o2)cc1)CCOCCOc1ccc(-c2cc(=O)c3ccccc3o2)cc1 [Compound 33, 1,13-Bis[4′-(4H-chromen-4-on-2-yl)phenyl]-7-(tert-butylacetyl)-1,4,10,13-tetraoxa-7-azamidecane] | > 100 µM | > 100 µM | (18.9) | > 100 µM | – | – | – |
| 150 nM | O=c1cc(-c2ccc(OCCOCCN(CCOCCOc3ccc(-c4cc(=O)c5ccccc5o4)cc3)Cc3ccc(C(F)(F)F)cc3)cc2)oc2ccccc12 [Compound 35, 1,13-Bis[4′-(4H-chromen-4-on-2-yl)phenyl]-7-(4-trifluoromethylbenzyl)-1,4,10,13-tetraoxa-7-azamidecane] | > 100 µM | > 100 µM | (37.3) | 32.7 µM | – | 218.0 | – |
| 246 ± 66 nM | O=c1cc(-c2ccc(OCCOCCN(CCOCCOc3ccc(-c4cc(=O)c5ccccc5o4)cc3)Cc3ccc(F)cc3F)cc2)oc2ccccc12 [Compound 40, 1,13-Bis[4′-(4H-chromen-4-on-2-yl)phenyl]-7-(2,4-difluorobenzyl)-1,4,10,13-tetraoxa-7-azamidecane] | > 100 µM | > 100 µM | (32.6) | > 100 µM | (117.8) | >406.5 | – |
| 237 ± 91 nM | O=c1cc(-c2ccc(OCCOCCN(CCOCCOc3ccc(-c4cc(=O)c5ccccc5o4)cc3)Cc3c(F)cccc3F)cc2)oc2ccccc12 [Compound 41, 1,13-Bis[4′-(4H-chromen-4-on-2-yl)phenyl]-7-(2,6-difluorobenzyl)-1,4,10,13-tetraoxa-7-azamidecane] | > 100 µM | > 100 µM | (34.0) | > 100 µM | (90.1) | >421.9 | – |
| 104 ± 7 nM | COc1ccc(CN(CCOCCOc2ccc(-c3cc(=O)c4ccccc4o3)cc2)CCOCCOc2ccc(-c3cc(=O)c4ccccc4o3)cc2)cc1 [Compound 42a, 1,13-Bis[4′-(4H-chromen-4-on-2-yl)phenyl]-7-(4-methoxybenzyl)-1,4,10,13-tetraoxa-7-azamidecane] | > 91 µM | > 100 µM | (61.2) | > 100 µM | (117.8) | >961.5 | EC50 ([3]; Daunorubicin): 61 ± 6 nM; EC50 ([3]; Doxorubicin): 63 ± 8 nM; EC50 ([3]; Mitoxantrone): 96 ± 27 nM; EC50 ([3]; Vinblasinte, vinblastine): 94 ± 13 nM; EC50 ([3]; Vincristine): 98 ± 5 nM |
| – | O=c1cc(-c2ccc(OCCOCCN(CCOCCOc3ccc(-c4cc(=O)c5ccccc5o4)cc3)Cc3ccc(OC(F)(F)F)cc3)cc2)oc2ccccc12 [Compound 42b, 1,13-Bis[4′-(4H-chromen-4-on-2-yl)phenyl]-7-(4-trifluoromethoxybenzyl)-1,4,10,13-tetraoxa-7-azamidecane] | > 100 µM | > 100 µM | (3.8) | > 83 µM | (47.8) | – | – |
| 140 ± 12 nM | CC(=O)Oc1ccc(CN(CCOCCOc2ccc(-c3cc(=O)c4ccccc4o3)cc2)CCOCCOc2ccc(-c3cc(=O)c4ccccc4o3)cc2)cc1 [Compound 42c, 1,13-Bis[4′-(4H-chromen-4-on-2-yl)phenyl]-7-(4-acetyloxybenzyl)-1,4,10,13-tetraoxa-7-azamidecane] | 6.6 ± 1 µM | 5.9 ± 0.7 µM | (95.7) | 4.5 ± 0.1 µM | (117.8) | 32.1 | – |
| – | C/C=C/C[C@@H](C)C(=O)[C@H]1C(=O)N[C@@H](C(C)C)C(=O)N(C)CC(=O)N(C)[C@@H](CC(C)C)C(=O)N[C@@H](C(C)C)C(=O)N(C)[C@@H](CC(C)C)C(=O)N[C@@H](C)C(=O)N[C@H](C)C(=O)N(C)[C@@H](CC(C)C)C(=O)N(C)[C@@H](CC(C)C)C(=O)N(C)[C@@H](C(C)C)C(=O)N1C [PSC833, reference compound] | – | – | – | – | – | – | IC50 at 72 h [1]: 25.3 ± 4.3 µM; IC50 at 72 h [2]: 14.6 ± 2.2 µM; IC50 at 72 h [4]: > 100 µM |
